According to patent US11759462B2, “Spirocyclic compounds as tryptophan hydroxylase inhibitors” (priority 2013, dated 2023):
Read-outs that look alike come from different tables or passages of the source.

Assays:
[1] = target: T1, Recombinant human TPH1 (MBP tagged) (Homo sapiens, UniProt P17752); experiment: TPH1 in vitro inhibition assay (kinetic fluorescence); format: biochemical
T1 construct: cloning full length human TPH1 cDNA in to a bacterial pMAL-c5E expression vector; made in house; host or cells: E. coli BL21 (DE3)
T1 sequence (P17752 1-444): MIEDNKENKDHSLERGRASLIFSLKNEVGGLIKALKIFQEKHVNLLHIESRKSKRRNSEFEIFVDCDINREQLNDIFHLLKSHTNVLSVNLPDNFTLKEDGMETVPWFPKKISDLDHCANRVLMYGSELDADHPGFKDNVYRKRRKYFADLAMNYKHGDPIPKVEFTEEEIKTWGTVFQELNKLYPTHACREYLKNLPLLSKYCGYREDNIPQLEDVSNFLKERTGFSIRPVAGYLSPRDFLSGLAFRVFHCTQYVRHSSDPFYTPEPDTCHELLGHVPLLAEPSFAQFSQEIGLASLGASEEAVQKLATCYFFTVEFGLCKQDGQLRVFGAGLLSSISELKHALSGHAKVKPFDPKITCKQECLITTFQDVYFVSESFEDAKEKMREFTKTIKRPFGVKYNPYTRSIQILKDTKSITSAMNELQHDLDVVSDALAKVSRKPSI
Summary of the method: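 Final mix: 15 nM MBP-TPH1, 30 μM Trp, 36 μM 6-methyltetrahydropterin, 25 μM ferrous ammonium sulfate, 50 mM MES pH 7.1, 1% DMSO, room temperature.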

[2] = tested on: jejunal mucosal 5-HT in mice (C57 BL6); experiment: Intestinal 5-HT depletion assay (Example B, single 150 mg/kg oral dose); format: in vivo, mouse; settings: one day after oral administration of a single 150 mg/kg dose, P-value class (ANOVA)
Summary of the method: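 C57 BL6 mice received one 150 mg/kg oral gavage dose; jejunal mucosa was homogenized in acidic trichloroacetic acid buffer and 5-HT measured by HPLC. Levels normalized to BCA protein, expressed as mean percent reduction versus vehicle ± SEM; ANOVA significance.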

[3] = tested on: jejunal mucosal 5-HT in mice (C57 BL6); experiment: Reduction of mucosal 5-HT concentrations (Example C, repeated oral dosing); format: in vivo, mouse; settings: after three oral doses (first 10 or 50 mg/kg, then two doses of 50 mg/kg) (title), P-value class
Protocol: The efficacy of the TPH1 inhibitors of the invention was assessed for the ability to decrease intestinal serotonin concentration in mice. Mice (C57 BL6) were administered an oral dose of 10 or 50 mg/kg of the test article in the evening. […] Following an overnight fast, each animal was euthanized by exsanguination under isoflurane anesthesia. Jejunal intestinal mucosa was isolated and homogenized in […] of a buffer containing 0.3M trichloroacetic acid, 0.1M sodium acetate, 10 mM EDTA, 20 mM sodium bisulfate and 50 mM ascorbic acid. Following centrifugation the 5-HT levels in the supernatants were measured by HPLC. The remaining mucosal pellet was solubilized overnight at 37° C. in a 0.1% sodium dodecyl sulfate buffer in 0.1N NaOH followed by determination of protein concentrations using a BCA protein assay (Pierce, Rockford, Ill.). 5-HT levels were normalized to protein and data were expressed as mean percent reduction of mucosal 5-HT levels relative to vehicle control±SEM (percent 5-HT reduction). All animal studies were carried out with protocols approved by the Institutional Animal Care and Use Committee. P-values, indicating statistical significance of the data (ANOVA) are provided in the table: * refers to P<0.05,** refers to P<0.01, *** refers to P<0.005, and **** refers to P<0.0005.

[4] = read-out: TPH1 Range (TPH1 inhibition IC50)
[5] = TPH1 Range (TPH1 inhibition IC50)

Compound | IC50 [1, 4] [nM] | Efficacy (statistical significance of reduction of mucosal 5-HT concentrations relative to vehicle) [2] | IC50 [1, 5] [nM] | Efficacy (statistical significance of reduction of mucosal 5-HT concentrations relative to vehicle) [3]
CCCc1ccc([C@@H](Oc2cc(N3CCC4(CC3)CN[C@H](C(=O)O)C4)nc(N)n2)C(F)(F)F)c(-n2ccc(C)n2)c1 [Example 12b, (S)-8-(2-amino-6-((R)-2,2,2-trifluoro-1-(2-(3-methyl-1H-pyrazol-1-yl)-4-propylphenyl)ethoxy)pyrimidin-4-yl)-2,8-diazaspiro[4.5]decane-3-carboxylic acid] | < 50 | * (* refers to P<0.05) |  | 
Cc1ccn(-c2cc(C(=O)O)ccc2[C@@H](Oc2cc(N3CCC4(CC3)CN[C@H](C(=O)O)C4)nc(N)n2)C(F)(F)F)n1 [Example 16, (S)-8-(2-amino-6-((R)-1-(4-carboxy-2-(3-methyl-H-pyrazol-1-yl)phenyl)-2,2,2-trifluoroethoxy)pyrimidin-4-yl)-2,8-diazaspiro[4.5]decane-3-carboxylic acid] | 300 to 3000 | ** (** refers to P<0.01) |  | 
CCCCc1ccc(-n2ccc(C)n2)c([C@@H](Oc2cc(N3CCC4(CC3)CN[C@H](C(=O)O)C4)nc(N)n2)C(F)(F)F)c1 [Example 22c, (S)-8-(2-amino-6-((R)-1-(5-butyl-2-(3-methyl-1H-pyrazol-1-yl)phenyl)-2,2,2-trifluoroethoxy)pyrimidin-4-yl)-2,8-diazaspiro[4.5]decane-3-carboxylic acid] | < 50 | * (* refers to P<0.05) |  | 
Nc1nc(O[C@H](c2ccc(Cl)cc2-c2ccc(Cl)s2)C(F)(F)F)cc(N2CCC3(CC2)CN[C@H](C(=O)O)C3)n1 [Example 34s, (S)-8-(2-amino-6-((R)-1-(4-chloro-2-(5-chlorothiophen-2-yl)phenyl)-2,2,2-trifluoroethoxy)pyrimidin-4-yl)-2,8-diazaspiro[4.5]decane-3-carboxylic acid] | 50 to 300 | ** (** refers to P<0.01) |  | 
Nc1nc(O[C@H](c2ccc(Cl)cc2-c2cccc(S(N)(=O)=O)c2)C(F)(F)F)cc(N2CCC3(CC2)CN[C@H](C(=O)O)C3)n1 [Example 34u, (S)-8-(2-amino-6-((R)-1-(5-chloro-3′-sulfamoyl-[1,1′-biphenyl]-2-yl)-2,2,2-trifluoroethoxy)pyrimidin-4-yl)-2,8-diazaspiro[4.5]decane-3-carboxylic acid] |  | * (* refers to P<0.05) | < 50 | 
Nc1nc(O[C@H](c2ccc(Cl)cc2-c2cccc(O)c2)C(F)(F)F)cc(N2CCC3(CC2)CN[C@H](C(=O)O)C3)n1 [Example 34v, (S)-8-(2-amino-6-((R)-1-(5-chloro-3′-hydroxy-[1,1′-biphenyl]-2-yl)-2,2,2-trifluoroethoxy)pyrimidin-4-yl)-2,8-diazaspiro[4.5]decane-3-carboxylic acid] | < 50 | * (* refers to P<0.05) |  | 
CS(=O)(=O)c1cccc(-c2cc(Cl)ccc2[C@@H](Oc2cc(N3CCC4(CC3)CN[C@H](C(=O)O)C4)nc(N)n2)C(F)(F)F)c1 [Example 34w, (S)-8-(2-amino-6-((R)-1-(5-chloro-3′-(methylsulfonyl)-[1,1′-biphenyl]-2-yl)-2,2,2-trifluoroethoxy)pyrimidin-4-yl)-2,8-diazaspiro[4.5]decane-3-carboxylic acid] |  | *** (*** refers to P<0.005) | < 50 | 
COc1cccc(-c2ccc(C(Oc3cc(N4CCC5(CC4)CN[C@H](C(=O)O)C5)nc(N)n3)C(F)(F)F)cc2)c1 (stereo partly drawn) [Example 55al, (3S)-8-(2-amino-6-(2,2,2-trifluoro-1-(3′-methoxy-[1,1′-biphenyl]-4-yl)ethoxy)pyrimidin-4-yl)-2,8-diazaspiro[4.5]decane-3-carboxylic acid] | 50 to 300 | * (* refers to P<0.05) |  | 
Nc1nc(O[C@H](c2ccc(-c3cccc(F)c3)cc2)C(F)(F)F)cc(N2CCC3(CC2)CN[C@H](C(=O)O)C3)n1 [Example 55am, (S)-8-(2-amino-6-((R)-2,2,2-trifluoro-1-(3′-fluoro-[1,1′-biphenyl]-4-yl)ethoxy)pyrimidin-4-yl)-2,8-diazaspiro[4.5]decane-3-carboxylic acid] | 50 to 300 | *** (*** refers to P<0.005) |  | 
COc1cccc(-c2ccc([C@@H](Oc3cc(N4CCC5(CC4)CN[C@H](C(=O)O)C5)nc(N)n3)C(F)(F)F)cc2)c1 [Example 55an, (S)-8-(2-amino-6-((R)-2,2,2-trifluoro-1-(3′-methoxy-[1,1′-biphenyl]-4-yl)ethoxy)pyrimidin-4-yl)-2,8-diazaspiro[4.5]decane-3-carboxylic acid] | 50 to 300 | *** (*** refers to P<0.005) |  | 
Cc1n[nH]c2cc(-c3ccc([C@@H](Oc4cc(N5CCC6(CC5)CN[C@H](C(=O)O)C6)nc(N)n4)C(F)(F)F)cc3)ccc12 [Example 55az, (S)-8-(2-amino-6-((R)-2,2,2-trifluoro-1-(4-(3-methyl-1H-indazol-6-yl)phenyl)ethoxy)pyrimidin-4-yl)-2,8-diazaspiro[4.5]decane-3-carboxylic acid] | < 50 | *** (*** refers to P<0.005) |  | 
Nc1nc(O[C@H](c2ccc(-c3ccc4c(c3)CCNC4=O)cc2)C(F)(F)F)cc(N2CCC3(CC2)CN[C@H](C(=O)O)C3)n1 [Example 55bc, (S)-8-(2-amino-6-((R)-2,2,2-trifluoro-1-(4-(1-oxo-1,2,3,4-tetrahydroisoquinolin-6-yl)phenyl)ethoxy)pyrimidin-4-yl)-2,8-diazaspiro[4.5]decane-3-carboxylic acid] | < 50 | ** (** refers to P<0.01) |  | 
Nc1nc(O[C@H](c2ccc(-c3ccc4cnccc4c3)cc2)C(F)(F)F)cc(N2CCC3(CC2)CN[C@H](C(=O)O)C3)n1 [Example 55bd, (S)-8-(2-amino-6-((R)-2,2,2-trifluoro-1-(4-(isoquinolin-6-yl)phenyl)ethoxy)pyrimidin-4-yl)-2,8-diazaspiro[4.5]decane-3-carboxylic acid] |  | *** (*** refers to P<0.005) | < 50 | 
Nc1nc(O[C@H](c2ccc(-c3ccc4ncsc4c3)cc2)C(F)(F)F)cc(N2CCC3(CC2)CN[C@H](C(=O)O)C3)n1 [Example 55k, (S)-8-(2-amino-6-((R)-1-(4-(benzo[d]thiazol-6-yl)phenyl)-2,2,2-trifluoroethoxy)pyrimidin-4-yl)-2,8-diazaspiro[4.5]decane-3-carboxylic acid] | 50 to 300 | * (* refers to P<0.05) |  | 
CCOC(=O)[C@@H]1CC2(CCN(c3cc(O[C@H](c4cc(Cl)ccc4-c4cccc(S(C)(=O)=O)c4)C(F)(F)F)nc(N)n3)CC2)CN1 [Example 63ae, (S)-ethyl 8-(2-amino-6-((R)-1-(4-chloro-3′-(methylsulfonyl)-[1,1′-biphenyl]-2-yl)-2,2,2-trifluoroethoxy)pyrimidin-4-yl)-2,8-diazaspiro[4.5]decane-3-carboxylate] |  |  |  | *** (*** refers to P<0.005)
(3S)-8-(2-amino-6-(2,2,2-trifluoro-1-(3′-fluoro- [1,1′-biphenyl]-4-yl)ethoxy)pyrimidin-4-yl)-2,8- diazaspiro[4.5]decane-3-carboxylic acid [Example 55ak] | 300 to 3000 | ** (** refers to P<0.01) |  | 
